According to the supplement of paper PMC11061612:

What was measured:
Experiment in all cases: combination Emax (second highest fraction inhibited in the dose matrix, 72 h); higher = more inhibition; extreme values may be limits of the assay
A204 (Rhabdomyosarcoma) = system: A204 (Rhabdomyosarcoma)
Procedure, shortened: (§1)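 Cell lines in DMEM/F12 or RPMI with 10% FBS were plated in 1536-well plates, held 24 hours at 37°C, 5% CO2, then given two-drug dose matrices for 72 hours (DMSO typically 0.2%). Viability was read by CellTiter-Glo 2.0 luminescence and scaled as inhibition from 0 (vehicle wells) to 1 (blank wells). Combination Emax is the second-highest inhibition in the matrix; Bliss excess is observed combination effect minus expected EA + EB − EA·EB, EA and EB being single-agent effects.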

[1] = system: CAL-27 (Oral Cavity Carcinoma)
Procedure, shortened: as §1

[2] = system: DMS-53 (Small Cell Lung Carcinoma)
Procedure, shortened: as §1

[3] = system: NCI-H2228 (Lung Adenocarcinoma)
Procedure, shortened: as §1

[4] = system: KYSE-140 (Esophageal Squamous Cell Carcinoma)
Procedure, shortened: as §1

5637 (Bladder Carcinoma) = system: 5637 (Bladder Carcinoma)
Procedure, shortened: as §1

[5] = system: CESS (Acute Myeloid Leukemia)
Procedure, shortened: as §1

[6] = system: CA46 (Burkitt's Lymphoma)
Procedure, shortened: as §1

[7] = system: EPLC-272H (Other Solid Carcinomas)
Procedure, shortened: as §1

[8] = system: UACC-812 (Breast Carcinoma)
Procedure, shortened: as §1

COLO-792 (Melanoma) = system: COLO-792 (Melanoma)
Procedure, shortened: as §1

NB13 (Neuroblastoma) = system: NB13 (Neuroblastoma)
Procedure, shortened: as §1

[9] = system: HCC1428 (Breast Carcinoma)
Procedure, shortened: as §1

EW-16 (Ewing's Sarcoma) = system: EW-16 (Ewing's Sarcoma)
Procedure, shortened: as §1

[10] = system: DU-4475 (Breast Carcinoma)
Procedure, shortened: as §1

[11] = system: JVM-2 (B-Cell Non-Hodgkin's Lymphoma)
Procedure, shortened: as §1

[12] = system: NCI-H716 (Colorectal Carcinoma)
Procedure, shortened: as §1

[13] = system: GA-10 (Burkitt's Lymphoma)
Procedure, shortened: as §1

[14] = system: ESO26 (Esophageal Adenocarcinoma)
Procedure, shortened: as §1

[15] = system: JIMT-1 (Breast Carcinoma)
Procedure, shortened: as §1

| Compound | combination Emax (A204 (Rhabdomyosarcoma)) | combination Emax [1] | combination Emax [2] | combination Emax [3] | combination Emax [4] | combination Emax (5637 (Bladder Carcinoma)) | combination Emax [5] | combination Emax [6] | combination Emax [7] | combination Emax [8] | combination Emax (COLO-792 (Melanoma)) | combination Emax (NB13 (Neuroblastoma)) | combination Emax [9] | combination Emax (EW-16 (Ewing's Sarcoma)) | combination Emax [10] | combination Emax [11] | combination Emax [12] | combination Emax [13] | combination Emax [14] | combination Emax [15] |
| --- | --- | --- | --- | --- | --- | --- | --- | --- | --- | --- | --- | --- | --- | --- | --- | --- | --- | --- | --- | --- |
| CN(CCO)CC[C@H](CSc1ccccc1)Nc1ccc(S(=O)(=O)NC(=O)c2ccc(N3CCC([C@@H](O)c4ccccc4-c4ccc(Cl)cc4)CC3)cc2)cc1S(=O)(=O)C(F)(F)F [AZD4320] + CCN(CCO)CCCOc1ccc2c(Nc3cc(CC(=O)Nc4cccc(F)c4)[nH]n3)ncnc2c1 [AZD2811] (first compound max 1 µM, 7x7, partner max 1 µM) | 0.261 | 0.752 | 0.949 | 0.271 | 0.334 | 0.898 | 0.937 | 0.356 | 0.635 | 0.12 | 0.781 | 1 | 0.754 | 0.973 | 0.971 | 0.801 | 0.298 | 0.661 | 0.112 | 0.319 |
| CN(CCO)CC[C@H](CSc1ccccc1)Nc1ccc(S(=O)(=O)NC(=O)c2ccc(N3CCC([C@@H](O)c4ccccc4-c4ccc(Cl)cc4)CC3)cc2)cc1S(=O)(=O)C(F)(F)F [AZD4320] + C[C@@H]1COCCN1C2=NC(=NC(=C2)C3(CC3)[S@](=N)(=O)C)C4=C5C=CNC5=NC=C4 [AZD6738] (first compound max 1 µM, 7x7, partner max 10 µM) | 0.438 | 0.498 | 0.994 | 0.466 | 0.878 | 0.91 | 0.987 | 0.362 | 0.936 | 0.275 | 0.692 | 1 | 0.708 | 0.932 | 1 | 0.908 | 0.647 | 0.979 | 0.628 | 0.871 |
| CN(CCO)CC[C@H](CSc1ccccc1)Nc1ccc(S(=O)(=O)NC(=O)c2ccc(N3CCC([C@@H](O)c4ccccc4-c4ccc(Cl)cc4)CC3)cc2)cc1S(=O)(=O)C(F)(F)F [AZD4320] + Cc1cc2ncnn2cc1Nc1ncc2c(n1)n(C1CCOCC1)c(=O)n2C [AZD7648] (first compound max 1 µM, 7x7, partner max 10 µM) | 0.273 | 0.0955 | 0.977 | 0.296 | 0.203 | 0.172 | 0.566 | 0.306 | 0.525 | 0.15 | 0.9 | 1 | 0.584 | 0.389 | 0.916 | 0.642 | 0.209 | 0.643 | 0.0775 | 0.225 |
| CN(CCO)CC[C@H](CSc1ccccc1)Nc1ccc(S(=O)(=O)NC(=O)c2ccc(N3CCC([C@@H](O)c4ccccc4-c4ccc(Cl)cc4)CC3)cc2)cc1S(=O)(=O)C(F)(F)F [AZD4320] + Cn1cnc2c(F)c(Nc3ccc(Br)cc3Cl)c(C(=O)NOCCO)cc21 [Selumetinib] (first compound max 1 µM, 7x7, partner max 3 µM) | 0.325 | 0.661 | 1 | 0.203 | 0.289 | 0.782 | 0.95 | 0.19 | 0.562 | 0.238 | 0.913 | 1 | 0.559 | 0.913 | 1 | 0.889 | 0.582 | 0.491 | 0.3 | 0.268 |
| Cc1cc2ncnn2cc1Nc1ncc2c(n1)n(C1CCOCC1)c(=O)n2C [AZD7648] + C=CCn1c(=O)c2cnc(Nc3ccc(N4CCN(C)CC4)cc3)nc2n1-c1cccc(C(C)(C)O)n1 [AZD1775] (first compound max 10 µM, partner max 1 µM) | 0.43 | 0.345 | 0.204 | 0.561 | 0.838 | 0.792 | 0.919 | 0.693 | 0.832 | 0.209 | 0.558 | 0.91 | 0.238 | 0.448 | 0.88 | 0.899 | 0.487 | 0.988 | 0.466 | 0.721 |
| Cc1cc2ncnn2cc1Nc1ncc2c(n1)n(C1CCOCC1)c(=O)n2C [AZD7648] + CCN(CCO)CCCOc1ccc2c(Nc3cc(CC(=O)Nc4cccc(F)c4)[nH]n3)ncnc2c1 [AZD2811] (first compound max 10 µM, 7x7, partner max 1 µM) | 0.467 | 0.583 | 0.165 | 0.434 | 0.353 | 0.648 | 0.243 | 0.418 | 0.496 | 0.242 | 0.46 | 0.518 | 0.326 | 0.445 | 0.23 | 0.7 | 0.336 | 0.852 | 0 | 0.348 |
| Cc1cc2ncnn2cc1Nc1ncc2c(n1)n(C1CCOCC1)c(=O)n2C [AZD7648] + CN(C)CCCOc1ccc(-c2ccc3ncc4c(c3c2)n(C2CCOCC2)c(=O)n4C)cn1 [AZD0156] (first compound max 10 µM, 7x7, partner max 1 µM) | 0.384 | 0.222 | 0.139 | 0.407 | 0.216 | 0.153 | 0.367 | 0.288 | 0.458 | 0.288 | 0.351 | 0.303 | 0.238 | 0.192 | 0.0619 | 0.622 | 0.251 | 0.446 | 0 | 0.348 |
| Cc1cc2ncnn2cc1Nc1ncc2c(n1)n(C1CCOCC1)c(=O)n2C [AZD7648] + C[C@@H]1COCCN1C2=NC(=NC(=C2)C3(CC3)[S@](=N)(=O)C)C4=C5C=CNC5=NC=C4 [AZD6738] (first compound max 10 µM, 7x7, partner max 10 µM) | 0.439 | 0.431 | 0.153 | 0.514 | 0.927 | 0.632 | 0.847 | 0.492 | 0.879 | 0.267 | 0.386 | 0.919 | 0.201 | 0.69 | 0.912 | 0.842 | 0.539 | 0.981 | 0.234 | 0.788 |
| Cc1cc2ncnn2cc1Nc1ncc2c(n1)n(C1CCOCC1)c(=O)n2C [AZD7648] + O=C(c1cc(Cc2n[nH]c(=O)c3ccccc23)ccc1F)N1CCN(C(=O)C2CC2)CC1 [Olaparib] (first compound max 10 µM, 7x7, partner max 10 µM) | 0.246 | 0.347 | 0.128 | 0.353 | 0.197 | 0.25 | 0.37 | 0.221 | 0.53 | 0.177 | 0.347 | 0.263 | 0.147 | 0.47 | 0.565 | 0.624 | 0.258 | 0.569 | 0.155 | 0.252 |
| COc1cc2ncnc(Nc3ccc(F)c(Cl)c3)c2cc1OCCCN1CCOCC1 [Gefitinib] + CC(C)n1c(=O)n(C)c2cnc3cc(F)c(-c4ccc(OCCCN5CCCCC5)nc4)cc3c21 [AZD1390] (first compound max 10 µM, 7x7, partner max 0.3 µM) | 0.139 | 0.689 | 0.147 | 0.203 | 0.534 | 0.495 | 0.195 | 0.297 | 0.565 | 0.24 | 0.251 | 0.178 | 0.101 | 0.176 | 0.157 | 0.528 | 0.361 | 0.353 | 0.571 | 0.491 |
| COc1cc2c(cc1OCCCCCOc1cc3c(cc1OC)C(=O)N1C=C(C)C[C@H]1C=N3)N=C[C@@H]1CC(C)=CN1C2=O [SG3199] + O=C(c1cc(Cc2n[nH]c(=O)c3ccccc23)ccc1F)N1CCN(C(=O)C2CC2)CC1 [Olaparib] (first compound max 0.001 µM, 7x7, partner max 10 µM) | 0.178 | 0.288 | 0.153 | 0.115 | 0.0926 | 0.187 | 0.182 | 0.157 | 0.123 | 0.134 | 0.109 | 0.213 | 0.0458 | 0.445 | 0.838 | 0.466 | 0.233 | 0.324 | 0.272 | 0.139 |
| C[C@@H](c1ccc2nccn2c1)n1nnc2ncc(-c3cnn(C)c3)nc21 [Savolitinib] + CC1(C)CCC(CN2CCN(c3ccc(C(=O)NS(=O)(=O)c4ccc(NCC5CCOCC5)c([N+](=O)[O-])c4)c(Oc4cnc5[nH]ccc5c4)c3)CC2)=C(c2ccc(Cl)cc2)C1 [Venetoclax] (first compound max 1 µM, 7x7, partner max 1 µM) | 0.0862 | 0.0502 | 0.395 | 0.114 | 0.305 | 0.0801 | 0.204 | 0.0492 | 0.205 | 0.105 | 0.27 | 0.152 | 0.125 | 0.12 | 0.146 | 0.141 | 0.251 | 0.101 | 0.0719 | 0.164 |
